Experimental data reported in patent US20080176932A1, “Pharmaceutical Compositions Containing Baicalein And Baicalin With Synergistic Effect In Tumor Treatment” (priority 2005, published 2008).
Where two headings read alike, the source gives them in different places.

Legend:
L1210 cells [1] = assay type: in vivo; settings: 5-FU 10 mg/kg s.c., day 1-10
Method: (§1) L1210 cells on the growth phase were injected at 1×10^5 cells via I.P. into BDF1 female mice (weight approximately 20 g). The next day of implantation, mice were grouped, and received an injection of 0.1 ml/10 g weight of the drug. […] The number of mice of each group was 10. Mice were weighed before and after the treatment. Survival time of each mouse was recorded. The results of changes in increasing of life span of mice were used in assessment of response. The increase of life span was determined as; increase of life span rate=(median survival time of treated animals/median survival time of control animals−1)×100%, the data were analyzed by t-test.

[2] = tested on: Murine melanoma cell line B 16; assay: Solid tumor transplant model, baicalein and baicalin; assay type: in vivo
Method: (§2) C57BL/6 female mice (weight approximately 20 g) were used in this study. Murine melanoma cell line B 16 cells, 2×10^6 tumor cells were implanted s.c. into the armpit of each mice after two passenges in vitro cultured. On the next day after implantation, mice were randomly grouped at 10 per group and received 0.1 ml/10 g weight of the drugs. […] The number of mice of each group was 10. Mice were weighed before and post the treatment. Animals were killed on day 15, and the tumors were removed and weighted.

[3] = tested on: Murine melanoma cell line B 16; assay: Solid tumor transplant model, baicalein and scutellarin; assay type: in vivo, C57BL/6 female mice; settings: for Final Tumor WT. (g) Mean ± SD / Tumor Growth Inhibition %: day 15
Method: as §2, with “0.1ml/10” for “0.1 ml/10”

L1210 cells [4] = assay type: in vivo; settings: day 1-10; for ILS(%) increase of life span: L1210 mice
Method: as §1

[5] = tested on: Human colon cancer cell line HCT116; assay: MTT growth inhibition, baicalein and scutellarin single or combination; assay type: cell-based
[6] = tested on: human liver cancer cell line HepG2; assay: as above; assay type: cell-based
[7] = tested on: Human gastric cancer cell line MKN28; assay: as above; assay type: cell-based
[8] = tested on: Human hung cancer cell line A549; assay: as above; assay type: cell-based
[9] = tested on: Human breast cancer cell line MCF-7; assay: as above; assay type: cell-based
Method: (§3) Cells were seeded onto 96-well plate at 5×10^3 cells/well, and grown in culture medium containing 10% fetal bovine serum (FBS). […] The viable cell growth was determined by MTT assay after 72-h continuous exposure.
(§4) A CI below 1 is an indication of synergy, while a CI equal to 1 represents addition, and a CI above 1 indicates antagonism.

[10] = tested on: Human prostate cancer cell line PC3; assay: as above; assay type: cell-based
Method: as §3, §4

[11] = tested on: Human esophagus cancer cell line TE2; assay: as above; assay type: cell-based
Method: as §3, §4

[12] = tested on: Human leukemia cell line HL60; assay: as above; assay type: cell-based
[13] = B16 mice, day 15, 5-FU 10 mg/kg s.c., day 1-10
[14] = B16 mice, 5-FU 10 mg/kg s.c., day 1-10
[15] = female, C57BL/6, mouse, in vivo, 15 days
[16] = B16 mice, Sc 25 mg/kg i.p., day 1-10
[17] = B16 mice, Sc 50 mg/kg i.p., day 1-10
[18] = B16 mice, Sc 100 mg/kg i.p., day 1-10
[19] = B16 mice, Sc 200 mg/kg i.p., day 1-10

Compound: O=c1[nH]cc(F)c(=O)[nH]1 [5-FU, 5-fluorouracil, reference compound]
- Number of mice Surviving through 15 days/total number (L1210 cells [1]): 10/10
- ILS(%) increase of life span (L1210 cells [1]; L1210 mice): 79%
- Final Tumor WT. (g) Mean ± SD [2, 13]: 1.35 ± 0.1 g
- Tumor Growth Inhibition % [2, 13]: 38%
- Weight Change % [2, 14]: <5%
- Number of mice Surviving through 15 days/total number [2, 15]: 10/10
- Final Tumor WT. (g) Mean ± SD [3, 14]: 1.35 ± 0.1 g
- Tumor Growth Inhibition % [3, 14]: 38%
- Number of mice through 15 days/total number [3, 15]: 10/10
- Number of mice Through surviving 15 days/total number (L1210 cells [4]; 5-FU 10 mg/kg s.c.): 10/10
- ILS(%) increase of life span (L1210 cells [4]; 5-FU 10 mg/kg s.c.): 79%

Compound: O=C(O)[C@H]1O[C@@H](Oc2cc3oc(-c4ccc(O)cc4)cc(=O)c3c(O)c2O)[C@H](O)[C@@H](O)[C@@H]1O [Sc, scutellarin]
- Inhibition of cell growth (%) ([5]; single dose 2.5 μm): 10.05 ± 2.5%
- Inhibition of cell growth (%) ([5]; single dose 5 μm): 15.1 ± 3%
- Inhibition of cell growth (%) ([5]; single dose 10 μm): 49 ± 2.2%
- Inhibition of cell growth (%) ([5]; single dose 20 μm): 83.7 ± 2.2%
- Inhibition of cell growth (%) ([5]; single dose 40 μm): 95 ± 2.8%
- Inhibition of cell growth (%) ([6]; single dose 2.5 μm): 5.2 ± 2.1%
- Inhibition of cell growth (%) ([6]; single dose 5 μm): 7.7 ± 2.3%
- Inhibition of cell growth (%) ([6]; single dose 10 μm): 43.35 ± 2.7%
- Inhibition of cell growth (%) ([6]; single dose 20 μm): 86.1 ± 2.9%
- Inhibition of cell growth (%) ([6]; single dose 40 μm): 88.45 ± 2.5%
- Inhibition of cell growth (%) ([7]; single dose 2.5 μm): 18.83 ± 2.2%
- Inhibition of cell growth (%) ([7]; single dose 5 μm): 21.23 ± 3.5%
- Inhibition of cell growth (%) ([7]; single dose 10 μm): 31.65 ± 2.8%
- Inhibition of cell growth (%) ([7]; single dose 20 μm): 35.34 ± 2.8%
- Inhibition of cell growth (%) ([7]; single dose 40 μm): 75.34 ± 2.7%
- Inhibition of cell growth (%) ([8]; single dose 2.5 μm): 1 ± 2.1%
- Inhibition of cell growth (%) ([8]; single dose 5 μm): 7.7 ± 3.3%
- Inhibition of cell growth (%) ([8]; single dose 10 μm): 32.33 ± 2.7%
- Inhibition of cell growth (%) ([8]; single dose 20 μm): 62.65 ± 2.5%
- Inhibition of cell growth (%) ([8]; single dose 40 μm): 91 ± 2.7%
- Inhibition of cell growth (%) ([9]; single dose 2.5 μm): 5 ± 2.5%
- Inhibition of cell growth (%) ([9]; single dose 5 μm): 20.71 ± 3.2%
- Inhibition of cell growth (%) ([9]; single dose 10 μm): 71 ± 2.2%
- Inhibition of cell growth (%) ([9]; single dose 20 μm): 87.5 ± 2.5%
- Inhibition of cell growth (%) ([9]; single dose 40 μm): 95.57 ± 2.2%
- Inhibition of cell growth (%) ([10]; single dose 2.5 μm): 2 ± 5%
- Inhibition of cell growth (%) ([10]; single dose 5 μm): 18 ± 3%
- Inhibition of cell growth (%) ([10]; single dose 10 μm): 39 ± 7%
- Inhibition of cell growth (%) ([10]; single dose 20 μm): 72 ± 9%
- Inhibition of cell growth (%) ([10]; single dose 40 μm): 91.8 ± 5%
- Inhibition of cell growth (%) ([11]; single dose 2.5 μm): 4.7 ± 2.2%
- Inhibition of cell growth (%) ([11]; single dose 5 μm): 12.97 ± 3.1%
- Inhibition of cell growth (%) ([11]; single dose 10 μm): 27.1 ± 2.7%
- Inhibition of cell growth (%) ([11]; single dose 20 μm): 66 ± 2.9%
- Inhibition of cell growth (%) ([11]; single dose 40 μm): 84.62 ± 2.5%
- Inhibition of cell growth (%) ([12]; single dose 2.5 μm): 2.25 ± 2.7%
- Inhibition of cell growth (%) ([12]; single dose 5 μm): 8.64 ± 3.2%
- Inhibition of cell growth (%) ([12]; single dose 10 μm): 37 ± 2.2%
- Inhibition of cell growth (%) ([12]; single dose 20 μm): 64.2 ± 2.7%
- Inhibition of cell growth (%) ([12]; single dose 40 μm): 88.5 ± 2.5%
- Final Tumor WT. (g) Mean ± SD [3, 16]: 1.81 ± 0.11 g
- Tumor Growth Inhibition % [3, 16]: 17%
- Final Tumor WT. (g) Mean ± SD [3, 17]: 1.72 ± 0.08 g
- Tumor Growth Inhibition % [3, 17]: 21.1%
- Final Tumor WT. (g) Mean ± SD [3, 18]: 1.48 ± 0.12 g
- Tumor Growth Inhibition % [3, 18]: 32.1%
- Final Tumor WT. (g) Mean ± SD [3, 19]: 1.22 ± 0.09 g
- Tumor Growth Inhibition % [3, 19]: 44%
- Number of mice through 15 days/total number [3, 16]: 10/10
- Weight Change % [3, 16]: <5%
- Number of mice through 15 days/total number [3, 17]: 10/10
- Weight Change % [3, 17]: <5%
- Number of mice through 15 days/total number [3, 18]: 10/10
- Weight Change % [3, 18]: <5%
- Number of mice through 15 days/total number [3, 19]: 10/10
- Weight Change % [3, 19]: <5%
- ILS(%) increase of life span (L1210 cells [4]; Sc 25 mg/kg i.p.): 11.9%
- ILS(%) increase of life span (L1210 cells [4]; Sc 50 mg/kg i.p.): 26%
- ILS(%) increase of life span (L1210 cells [4]; Sc 100 mg/kg i.p.): 37%
- ILS(%) increase of life span (L1210 cells [4]; Sc 200 mg/kg i.p.): 51%
- Number of mice Through surviving 15 days/total number (L1210 cells [4]; Sc 25 mg/kg i.p.): 10/10
- Number of mice Through surviving 15 days/total number (L1210 cells [4]; Sc 50 mg/kg i.p.): 10/10
- Number of mice Through surviving 15 days/total number (L1210 cells [4]; Sc 100 mg/kg i.p.): 10/10
- Number of mice Through surviving 15 days/total number (L1210 cells [4]; Sc 200 mg/kg i.p.): 10/10
